Reference: PMC12643509, “High-throughput screens identify genotype-specific therapeutics for channelopathies” (JCI Insight, 2025)
Values joined by “and” are separate entries in the source; they are usually repeats but may differ in a detail not shown here. Equal entries are not always repeated.

Experiments:
wild-type KV11.1 = wild-type KV11.1 (Homo sapiens, UniProt Q12809)
[1] = mouse, in vivo, ip, 40 mg/kg; cited from earlier work
WT Kv11.1 = WT Kv11.1 (Homo sapiens, UniProt Q12809); assay: Whole-cell patch-clamp electrophysiology, drug in bath solution, WT; format: cell-based; parameters: expressed in transfected cells; Activation tail currents / Steady-state currents / Time constants of activation (τ): unit not given here; conditions: for peak tail currents (I-V relationship) / Steady-state currents / Activation tail currents: WT, individual cells; for peak tail currents (I-V relationship): evacetrapib 15 μmol/L in bath; for Steady-state currents / Activation tail currents: evacetrapib 15 μmol/L; for Activation tail currents: tail at –40 mV
Text: Peak stea dy-sta te current was
Tail current was fit with a […]

[2] = Voltage -50 mV, individual replicates

Sequence of WT Kv11.1 (Q12809 whole entry): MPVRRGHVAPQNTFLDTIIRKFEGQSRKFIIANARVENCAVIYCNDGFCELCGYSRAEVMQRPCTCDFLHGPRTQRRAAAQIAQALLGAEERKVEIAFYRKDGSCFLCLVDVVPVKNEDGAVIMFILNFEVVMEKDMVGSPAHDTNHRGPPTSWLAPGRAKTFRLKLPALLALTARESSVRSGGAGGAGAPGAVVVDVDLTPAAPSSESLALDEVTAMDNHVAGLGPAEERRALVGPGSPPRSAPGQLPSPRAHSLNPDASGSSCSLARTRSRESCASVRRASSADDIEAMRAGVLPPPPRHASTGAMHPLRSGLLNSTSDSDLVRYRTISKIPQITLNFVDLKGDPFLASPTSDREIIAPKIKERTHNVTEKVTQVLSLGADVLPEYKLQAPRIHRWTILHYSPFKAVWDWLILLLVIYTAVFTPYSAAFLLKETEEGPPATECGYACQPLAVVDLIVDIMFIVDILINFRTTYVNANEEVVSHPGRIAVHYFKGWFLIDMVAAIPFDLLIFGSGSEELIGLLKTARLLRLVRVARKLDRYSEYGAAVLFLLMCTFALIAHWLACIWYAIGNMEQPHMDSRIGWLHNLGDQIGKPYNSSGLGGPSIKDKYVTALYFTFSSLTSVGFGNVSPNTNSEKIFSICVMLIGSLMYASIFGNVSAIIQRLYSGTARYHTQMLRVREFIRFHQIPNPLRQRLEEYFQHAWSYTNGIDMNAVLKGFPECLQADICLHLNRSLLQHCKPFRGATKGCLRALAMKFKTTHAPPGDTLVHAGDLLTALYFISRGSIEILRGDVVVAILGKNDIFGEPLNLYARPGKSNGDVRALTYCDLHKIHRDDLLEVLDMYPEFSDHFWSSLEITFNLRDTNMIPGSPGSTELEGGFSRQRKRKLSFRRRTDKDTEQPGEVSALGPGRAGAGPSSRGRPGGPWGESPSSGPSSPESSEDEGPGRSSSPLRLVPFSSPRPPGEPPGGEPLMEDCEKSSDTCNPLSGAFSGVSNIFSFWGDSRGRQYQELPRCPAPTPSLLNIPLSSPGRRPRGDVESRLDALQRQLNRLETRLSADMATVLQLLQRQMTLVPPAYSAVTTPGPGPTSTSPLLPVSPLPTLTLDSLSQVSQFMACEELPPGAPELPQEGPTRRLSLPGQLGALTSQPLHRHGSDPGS
Sequence of wild-type KV11.1 (Q12809 whole entry): as above

## Cc1cc(C)c2c(c1)[C@@H](N(Cc1cc(C(F)(F)F)cc(C(F)(F)F)c1)c1nnn(C)n1)CCCN2C[C@H]1CC[C@H](C(=O)O)CC1 [Evacetrapib, evacetrapib]
wild-type KV11.1
  inhibition of WT channels: did not inhibit WT channels
[1]
  peak plasma levels: 35 µmol/L
WT Kv11.1; Time 480, individual replicates
  Figure 5B value per cell vs Time: -0.4681 and -0.2647 and -0.2507 and -0.1972 and -0.3239 and -0.2271
WT Kv11.1; Time 540, individual replicates
  Figure 5B value per cell vs Time: -0.5284 and -0.3222 and -0.285 and -0.2169 and -0.3896 and -0.2816
WT Kv11.1; Time 600, individual replicates
  Figure 5B value per cell vs Time: -0.588 and -0.3629 and -0.3374 and -0.2423 and -0.4551 and -0.3284
WT Kv11.1; Time 660, individual replicates
  Figure 5B value per cell vs Time: -0.6518 and -0.4077 and -0.3785 and -0.3017 and -0.5218 and -0.3806
WT Kv11.1; Time 720, individual replicates
  Figure 5B value per cell vs Time: -0.7017 and -0.4517 and -0.4377 and -0.3271 and -0.5811 and -0.4215
WT Kv11.1; Time 780, individual replicates
  Figure 5B value per cell vs Time: -0.7446 and -0.5087 and -0.4704 and -0.3371 and -0.6312 and -0.4754
WT Kv11.1; Time 840, individual replicates
  Figure 5B value per cell vs Time: -0.7775 and -0.545 and -0.522 and -0.4074 and -0.6797 and -0.5211
WT Kv11.1; Time 900, individual replicates
  Figure 5B value per cell vs Time: -0.7865 and -0.5874 and -0.5479 and -0.435 and -0.735 and -0.566
WT Kv11.1; Time 960, individual replicates
  Figure 5B value per cell vs Time: -0.833 and -0.6254 and -0.582 and -0.4724 and -0.7754 and -0.6113
WT Kv11.1; Time 1020, individual replicates
  Figure 5B value per cell vs Time: -0.8444 and -0.6633 and -0.6057 and -0.489 and -0.8272 and -0.6494
WT Kv11.1; Time 1080, individual replicates
  Figure 5B value per cell vs Time: -0.8739 and -0.6879 and -0.652 and -0.5518 and -0.8519 and -0.6869
WT Kv11.1; Time 1140, individual replicates
  Figure 5B value per cell vs Time: -0.894 and -0.7265 and -0.6824 and -0.5792 and -0.8903 and -0.723
WT Kv11.1; Time 1200, individual replicates
  Figure 5B value per cell vs Time: -0.8957 and -0.756 and -0.7067 and -0.6036 and -0.9115 and -0.75
WT Kv11.1; Time 1260, individual replicates
  Figure 5B value per cell vs Time: -0.9162 and -0.7845 and -0.7409 and -0.6519 and -0.9274 and -0.7716
WT Kv11.1; Time 1320, individual replicates
  Figure 5B value per cell vs Time: -0.9293 and -0.808 and -0.7659 and -0.6564 and -0.944 and -0.7966
WT Kv11.1; Time 1380, individual replicates
  Figure 5B value per cell vs Time: -0.9321 and -0.8297 and -0.7811 and -0.6653 and -0.9508 and -0.8202
WT Kv11.1; Time 1440, individual replicates
  Figure 5B value per cell vs Time: -0.9456 and -0.8515 and -0.7941 and -0.6916
WT Kv11.1; Voltage 0 mV, individual replicates
  Figure 4B value per cell vs Voltage (mV): 11.8726 and 11.4943 and 10.3496 and 10.9094 and 10.8921
WT Kv11.1; Voltage 10 mV, individual replicates
  Figure 4B value per cell vs Voltage (mV): 8.653 and 8.735 and 8.112 and 8.594 and 8.227
WT Kv11.1; Voltage 20 mV, individual replicates
  Figure 4B value per cell vs Voltage (mV): 6.045 and 6.561 and 6.2 and 6.536 and 6.09
WT Kv11.1; Voltage 30 mV, individual replicates
  Figure 4B value per cell vs Voltage (mV): 4.263 and 4.813 and 4.589 (2×) and 4.855
WT Kv11.1; Voltage 40 mV, individual replicates
  Figure 4B value per cell vs Voltage (mV): 2.999 and 3.548 and 3.503 and 3.618 and 3.396
WT Kv11.1; Voltage 50 mV, individual replicates
  Figure 4B value per cell vs Voltage (mV): 2.259 and 2.688 and 2.663 and 2.777 and 2.566
WT Kv11.1; Voltage 60 mV, individual replicates
  Figure 4B value per cell vs Voltage (mV): 1.878 and 2.068 and 2.124 and 2.21 and 2.021
WT Kv11.1; Voltage 70 mV, individual replicates
  Figure 4B value per cell vs Voltage (mV): 1.522 and 1.6561 and 1.697 and 1.79 and 1.58
WT Kv11.1; Voltage (mV) 0
  peak tail currents (I-V relationship): 108.731 and 68.2281 and 79.8578 and 105.108 and 89.4676 and 63.9693 and 63.3317 and 23.2206 and 38.9777 and 18.6844
  Steady-state currents: 40.4395 and 14.6593 and 23.6253 and 10.7424 and 12.2745 and 25.059 and 13.3557 and 25.8785 and 25.7792 and 48.7186 and 28.6917
  Activation tail currents: 45.6244 and 25.343 and 54.0146 and 31.4245 and 29.2272 and 68.7383 and 34.1486 and 20.8925 and 71.2996 and 102.774 and 57.7045
WT Kv11.1; Voltage (mV) 10
  peak tail currents (I-V relationship): 93.1489 and 60.1622 and 69.939 and 86.7676 and 75.6735 and 55.3784 and 40.7784 and 17.5354 and 25.5833 and 12.8315
  Steady-state currents: 32.8981 and 20.4014 and 36.7833 and 17.1944 and 20.5841 and 27.8135 and 21.9511 and 36.7956 and 27.3543 and 47.5782 and 26.4245
  Activation tail currents: 61.4581 and 36.6943 and 61.1695 and 48.7606 and 43.5182 and 102.425 and 47.3892 and 33.802 and 80.7764 and 116.916 and 59.6106
WT Kv11.1; Voltage (mV) 20
  peak tail currents (I-V relationship): 76.997 and 51.8869 and 61.5888 and 71.295 and 62.4196 and 45.36 and 26.1159 and 13.7511 and 17.275 and 9.104
  Steady-state currents: 22.6993 and 18.9152 and 37.889 and 17.2911 and 21.9338 and 23.7154 and 29.6022 and 43.1925 and 20.5026 and 37.4057 and 19.7431
  Activation tail currents: 71.9787 and 45.4439 and 63.7225 and 61.2461 and 53.0993 and 122.955 and 54.7189 and 46.6431 and 82.6403 and 123.849 and 59.1491
WT Kv11.1; Voltage (mV) 30
  peak tail currents (I-V relationship): 61.9853 and 42.564 and 49.6862 and 55.8776 and 49.9256 and 37.5621 and 17.4891 and 11.2899 and 12.2347 and 6.843
  Steady-state currents: 13.8134 and 15.2335 and 30.8124 and 15.3878 and 19.0656 and 16.8628 and 32.7435 and 42.003 and 14.0184 and 26.2752 and 15.6099
  Activation tail currents: 78.4549 and 49.9729 and 64.1927 and 68.2058 and 57.9705 and 130.879 and 57.8601 and 56.5419 and 81.1964 and 126.769 and 58.6074
WT Kv11.1; Voltage (mV) 40
  peak tail currents (I-V relationship): 49.0637 and 36.1043 and 40.7824 and 44.6525 and 42.1084 and 30.3986 and 12.7193 and 9.659 and 9.23 and 5.4472
  Steady-state currents: 8.152
  Activation tail currents: 80.9925 and 51.9387 and 63.2186 and 69.4712 and 59.5512 and 133.68 and 59.6841 and 61.1492 and 78.5713 and 128.32 and 57.9252
WT Kv11.1; Voltage (mV) -10
  peak tail currents (I-V relationship): 121.614 and 76.2939 and 89.915 and 120.029 and 102.147 and 69.7054 and 87.5927 and 30.4321 and 56.9661 and 25.473
  Steady-state currents: 39.4793 and 7.634 and 11.4994 and 5.42 and 5.3991 and 14.8809 and 6.707 and 15.12 and 14.6222 and 35.1249 and 21.6894
WT Kv11.1; Voltage (mV) -20
  peak tail currents (I-V relationship): 131.419 and 84.709 and 100.756 and 135.254 and 114.81 and 74.7542 and 102.167 and 37.4476 and 77.7339 and 32.9646
  Steady-state currents: 32.9524 and 3.6817 and 4.46 and 2.8711 and 2.362 and 6.4831 and 3.43 and 7.428 and 4.804 and 18.1098 and 9.611
  Activation tail currents: 15.0143
WT Kv11.1; Voltage (mV) -30
  peak tail currents (I-V relationship): 132.826 and 89.7021 and 107.215 and 142.287 and 124.198 and 74.8335 and 106.966 and 44.1713 and 97.481 and 39.1658
  Steady-state currents: 26.2905 and 2.297 and 2.248 and 2.097 and 1.35 and 2.687 and 2.39 and 4.071 and 1.181 and 8.895 and 2.9695
  Activation tail currents: 7.534 and 3.411 and 6.987 and 3.037 and 3.42 and 5.381 and 4.729 and 3.695 and 5.67 and 20.6644 and 10.955
WT Kv11.1; Voltage (mV) -40
  peak tail currents (I-V relationship): 123.894 and 91.9717 and 106.938 and 138.26 and 129.161 and 68.3308 and 100.665 and 47.0658 and 110.15 and 41.9127
  Steady-state currents: 22.4974 and 1.925 and 1.695 and 1.5162 and 1.5185 and 1.713 and 2.12 and 2.908 and -0.105 and 5.52 and 1.124
  Activation tail currents: 4.388 and 2.505 and 3.124 and 2.236 and 2.355 and 2.6537 and 2.736 and 2.76 and 1.5226 and 9.99 and 3.792
WT Kv11.1; Voltage (mV) -50
  peak tail currents (I-V relationship): 102.384 and 84.1154 and 96.6044 and 116.609 and 127.372 and 55.6691 and 86.621 and 46.497 and 109.939 and 41.3172
  Steady-state currents: 1.688 and 1.554 and 1.143 and 1.161 and 1.645 and 1.646 and 2.0814 and 1.85 and -0.735 and 4.1055 and 0.8628
  Activation tail currents: 3.7007 and 2.582 and 2.251 and 2.025 and 2.032 and 1.953 and 2.466 and 2.6 and 0.4988 and 7.116 and 1.746
WT Kv11.1; Voltage (mV) -60
  Activation tail currents: 4.229 and 3.296 and 2.251 and 1.856 and 2 and 1.917 and 2.331 and 2.577 and 0.3413 and 6.751 and 1.786
WT Kv11.1; Voltage -10 mV, individual replicates
  Figure 4B value per cell vs Voltage (mV): 14.8044 and 13.7126 and 12.9375 and 13.3319 and 13.3961
WT Kv11.1; Voltage -20 mV, individual replicates
  Figure 4B value per cell vs Voltage (mV): 17.0235 and 15.2047 and 14.605 and 15.0846 and 15.5938
WT Kv11.1; Voltage -30 mV, individual replicates
  Figure 4D value per cell vs Voltage (mV): 15.7269 and 18.6316 and 19.1074 and 18.8344 and 16.9058 and 17.0433 and 17.3545
WT Kv11.1; Voltage -40 mV, individual replicates
  Figure 4D value per cell vs Voltage (mV): 16.5636 and 18.432 and 19.3043 and 18.0397 and 17.6 and 17.7987 and 17.7833 and 17.6688
WT Kv11.1; [2]
  Figure 4D value per cell vs Voltage (mV): 17.1571 and 17.6888 and 17.131 and 15.567 and 16.0065 and 16.8291 and 17.2705 and 17.4541
  Figure 5E value per cell vs Voltage (mV): 902.031 and 870.108 and 1400.85 and 879.311 and 1017 and 1248.9
  Figure 5F value per cell vs Voltage (mV): 6388.9 and 7989.38 and 5622.96
WT Kv11.1; Voltage -60 mV, individual replicates
  Figure 4D value per cell vs Voltage (mV): 15.2329 and 15.5388 and 14.7818 and 13.5682 and 12.8587 and 15.0819 and 14.9385 and 15.3669
